{"source": "patent US20230085307A1", "about": "“PYRIDAZINONE COMPOUND AND HERBICIDE” (NISSAN CHEMICAL CORPORATION, priority 2019, published 2023)", "data": [{"test_system": "late watergrass", "experiment": "Test Example 1: herbicidal activity, application before weed generation under submerged conditions (Table 16, symbol A)", "format": "in vivo, late watergrass (Echinochloa oryzicola)", "conditions": "320 g/ha applied herbicide", "method_in_brief": "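Alluvial soil was flooded to 4 cm depth, weed seeds were sown mixed and 2.5-leaf rice seedlings were transplanted. On sowing day, the compound's emulsion, diluted in water to a set dose, was applied to the water surface. Plants grew at 25–30 °C and were scored 0–5 after three weeks.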", "values": [{"smiles": "COCC(=O)Oc1c(C)nn(C)c(=O)c1-c1c(-c2ccc(OC(F)F)cc2)sc2ccc(F)cc12", "note": "[2-283]", "Herbicidal effect on A: late watergrass (grade 0-5)": "3 (Herbicidal rate of 40% or more and less than 70%)"}, {"smiles": "Cc1nn(C)c(=O)c(-c2c(-c3ccc(OC(F)F)cc3)sc3ccc(F)cc23)c1OC(=O)c1ccc(Cl)cc1", "note": "[2-286]", "Herbicidal effect on A: late watergrass (grade 0-5)": "5 (Herbicidal rate of 90% or more (almost completely withered))"}]}, {"test_system": "late watergrass", "experiment": "Test Example 2: herbicidal activity, application during weed generation under submerged conditions (Table 17, symbol A)", "format": "in vivo, late watergrass (Echinochloa oryzicola)", "conditions": "AAH 320 g/ha; application during weed generation, submerged conditions", "method_in_brief": "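Herbicide emulsion, diluted with water to the chosen amount, is applied onto 4 cm floodwater over alluvial soil where the weeds were co-sown and raised at 25–30° C. Application timing: 1–2 leaves. Assessment: three weeks afterwards.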", "values": [{"smiles": "COCC(=O)Oc1c(C)nn(C)c(=O)c1-c1c(-c2ccc(OC(F)F)cc2)sc2ccc(F)cc12", "note": "[2-283]", "herbicidal effect rating, A: late watergrass": "5 (Herbicidal rate of 90% or more (almost completely withered))"}, {"smiles": "Cc1nn(C)c(=O)c(-c2c(-c3ccc(OC(F)F)cc3)sc3ccc(F)cc23)c1OC(=O)c1ccc(Cl)cc1", "note": "[2-286]", "herbicidal effect rating, A: late watergrass": "3 (Herbicidal rate of 40% or more and less than 70%)"}]}, {"test_system": "barnyard grass", "experiment": "Test Example 3: herbicidal effect by foliage application, Wagner pot (Table 18, symbol H)", "format": "in vivo, barnyard grass (Echinochloa crus-galli)", "conditions": "amount of applied herbicide 320 g/ha", "method_in_brief": "(§1)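 Plants were sown in alluvial soil held under 0.1–0.5 cm standing water and grown 14 days in a greenhouse at 25–30 °C. An emulsifiable formulation, water-diluted to the set dose, was then sprayed onto the foliage, and effects were scored three weeks later using previously defined criteria.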", "values": [{"smiles": "COCC(=O)Oc1c(C)nn(C)c(=O)c1-c1c(-c2ccc(OC(F)F)cc2)sc2ccc(F)cc12", "note": "[2-283]", "herbicidal effect on H: barnyard grass": "5 (Herbicidal rate of 90% or more (almost completely withered))"}, {"smiles": "Cc1nn(C)c(=O)c(-c2c(-c3ccc(OC(F)F)cc3)sc3ccc(F)cc23)c1OC(=O)c1ccc(Cl)cc1", "note": "[2-286]", "herbicidal effect on H: barnyard grass": "5 (Herbicidal rate of 90% or more (almost completely withered))"}]}, {"test_system": "Chinese sprangletop", "experiment": "Test Example 3: herbicidal effect by foliage application, Wagner pot (Table 18, symbol D)", "format": "in vivo, chinese sprangletop (Leptochloa chinensis)", "conditions": "amount of applied herbicide 320 g/ha", "method_in_brief": "as §1", "values": [{"smiles": "COCC(=O)Oc1c(C)nn(C)c(=O)c1-c1c(-c2ccc(OC(F)F)cc2)sc2ccc(F)cc12", "note": "[2-283]", "herbicidal effect on D: Chinese sprangletop": "4 (Herbicidal rate of 70% or more and less than 90%)"}, {"smiles": "Cc1nn(C)c(=O)c(-c2c(-c3ccc(OC(F)F)cc3)sc3ccc(F)cc23)c1OC(=O)c1ccc(Cl)cc1", "note": "[2-286]", "herbicidal effect on D: Chinese sprangletop": "4 (Herbicidal rate of 70% or more and less than 90%)"}]}, {"test_system": "southern crabgrass", "experiment": "Test Example 4: herbicidal effect by soil treatment (Table 19, symbol F)", "format": "in vivo, southern crabgrass (Digitaria ciliaris)", "conditions": "amount of applied herbicide 320 g/ha", "method_in_brief": "(§2)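 Three weeks of greenhouse growth at 25° C. to 30° C. followed a uniform surface spray of water-diluted emulsion at a predetermined herbicide amount. Seeds had been sown beforehand under about 1.5 cm of sterilized diluvial soil. Grading followed criteria set out in an earlier test.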", "values": [{"smiles": "COCC(=O)Oc1c(C)nn(C)c(=O)c1-c1c(-c2ccc(OC(F)F)cc2)sc2ccc(F)cc12", "note": "[2-283]", "herbicidal effect on F: southern crabgrass": "5 (Herbicidal rate of 90% or more (almost completely withered))"}, {"smiles": "Cc1nn(C)c(=O)c(-c2c(-c3ccc(OC(F)F)cc3)sc3ccc(F)cc23)c1OC(=O)c1ccc(Cl)cc1", "note": "[2-286]", "herbicidal effect on F: southern crabgrass": "0 (Herbicidal rate of 5% or less (almost no effect))"}]}, {"test_system": "blackgrass", "experiment": "Test Example 4: herbicidal effect by soil treatment (Table 19, symbol J)", "format": "in vivo, blackgrass (Alopecurus myosuroides)", "conditions": "amount of applied herbicide 320 g/ha", "method_in_brief": "as §2", "values": [{"smiles": "COCC(=O)Oc1c(C)nn(C)c(=O)c1-c1c(-c2ccc(OC(F)F)cc2)sc2ccc(F)cc12", "note": "[2-283]", "herbicidal effect on J: blackgrass": "3 (Herbicidal rate of 40% or more and less than 70%)"}, {"smiles": "Cc1nn(C)c(=O)c(-c2c(-c3ccc(OC(F)F)cc3)sc3ccc(F)cc23)c1OC(=O)c1ccc(Cl)cc1", "note": "[2-286]", "herbicidal effect on J: blackgrass": "0 (Herbicidal rate of 5% or less (almost no effect))"}]}, {"test_system": "Italian ryegrass", "experiment": "Test Example 4: herbicidal effect by soil treatment (Table 19, symbol K)", "format": "in vivo, Italian ryegrass (Lolium multiflorum)", "conditions": "amount of applied herbicide 320 g/ha", "method_in_brief": "as §2", "values": [{"smiles": "COCC(=O)Oc1c(C)nn(C)c(=O)c1-c1c(-c2ccc(OC(F)F)cc2)sc2ccc(F)cc12", "note": "[2-283]", "herbicidal effect on K: Italian ryegrass": "5 (Herbicidal rate of 90% or more (almost completely withered))"}, {"smiles": "Cc1nn(C)c(=O)c(-c2c(-c3ccc(OC(F)F)cc3)sc3ccc(F)cc23)c1OC(=O)c1ccc(Cl)cc1", "note": "[2-286]", "herbicidal effect on K: Italian ryegrass": "5 (Herbicidal rate of 90% or more (almost completely withered))"}]}, {"test_system": "windgrass", "experiment": "Test Example 4: herbicidal effect by soil treatment (Table 19, symbol L)", "format": "in vivo, windgrass (Apera spica-venti)", "conditions": "amount of applied herbicide 320 g/ha", "method_in_brief": "as §2", "values": [{"smiles": "COCC(=O)Oc1c(C)nn(C)c(=O)c1-c1c(-c2ccc(OC(F)F)cc2)sc2ccc(F)cc12", "note": "[2-283]", "herbicidal effect on L: windgrass": "4 (Herbicidal rate of 70% or more and less than 90%)"}, {"smiles": "Cc1nn(C)c(=O)c(-c2c(-c3ccc(OC(F)F)cc3)sc3ccc(F)cc23)c1OC(=O)c1ccc(Cl)cc1", "note": "[2-286]", "herbicidal effect on L: windgrass": "0 (Herbicidal rate of 5% or less (almost no effect))"}]}, {"test_system": "velvetleaf", "experiment": "Test Example 4: herbicidal effect by soil treatment (Table 19, symbol M)", "format": "in vivo, velvetleaf (Abutilon theophrasti)", "conditions": "amount of applied herbicide 320 g/ha", "method_in_brief": "as §2", "values": [{"smiles": "COCC(=O)Oc1c(C)nn(C)c(=O)c1-c1c(-c2ccc(OC(F)F)cc2)sc2ccc(F)cc12", "note": "[2-283]", "herbicidal effect on M: velvetleaf": "5 (Herbicidal rate of 90% or more (almost completely withered))"}, {"smiles": "Cc1nn(C)c(=O)c(-c2c(-c3ccc(OC(F)F)cc3)sc3ccc(F)cc23)c1OC(=O)c1ccc(Cl)cc1", "note": "[2-286]", "herbicidal effect on M: velvetleaf": "0 (Herbicidal rate of 5% or less (almost no effect))"}]}, {"test_system": "lambsquarters", "experiment": "Test Example 4: herbicidal effect by soil treatment (Table 19, symbol O)", "format": "in vivo, lambsquarters (Chenopodium album)", "conditions": "amount of applied herbicide 320 g/ha", "method_in_brief": "as §2", "values": [{"smiles": "COCC(=O)Oc1c(C)nn(C)c(=O)c1-c1c(-c2ccc(OC(F)F)cc2)sc2ccc(F)cc12", "note": "[2-283]", "herbicidal effect on O: lambsquarters": "5 (Herbicidal rate of 90% or more (almost completely withered))"}, {"smiles": "Cc1nn(C)c(=O)c(-c2c(-c3ccc(OC(F)F)cc3)sc3ccc(F)cc23)c1OC(=O)c1ccc(Cl)cc1", "note": "[2-286]", "herbicidal effect on O: lambsquarters": "3 (Herbicidal rate of 40% or more and less than 70%)"}]}, {"test_system": "persian speedwell", "experiment": "Test Example 4: herbicidal effect by soil treatment (Table 19, symbol R)", "format": "in vivo, Persian speedwell (Veronica persica)", "conditions": "amount of applied herbicide 320 g/ha", "method_in_brief": "as §2", "values": [{"smiles": "COCC(=O)Oc1c(C)nn(C)c(=O)c1-c1c(-c2ccc(OC(F)F)cc2)sc2ccc(F)cc12", "note": "[2-283]", "herbicidal effect on R: persian speedwell": "5 (Herbicidal rate of 90% or more (almost completely withered))"}, {"smiles": "Cc1nn(C)c(=O)c(-c2c(-c3ccc(OC(F)F)cc3)sc3ccc(F)cc23)c1OC(=O)c1ccc(Cl)cc1", "note": "[2-286]", "herbicidal effect on R: persian speedwell": "3 (Herbicidal rate of 40% or more and less than 70%)"}]}, {"test_system": "blackgrass", "experiment": "Test Example 5: herbicidal effect by foliage application, plastic box (Table 20, symbol J)", "format": "in vivo, blackgrass (Alopecurus myosuroides)", "conditions": "foliage application, AAH 320 g/ha, evaluated three weeks after application", "method_in_brief": "(§3)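 Plants sown in sterilized diluvial soil and grown 14 days in a greenhouse at 25° C to 30° C, then sprayed on the foliage with the compound's emulsion diluted in water to a predetermined herbicide amount. Injury to weeds and crops scored three weeks after application on a visual rating scale.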", "values": [{"smiles": "COCC(=O)Oc1c(C)nn(C)c(=O)c1-c1c(-c2ccc(OC(F)F)cc2)sc2ccc(F)cc12", "note": "[2-283]", "J: blackgrass, herbicidal effect (criteria 0-5)": "4 (Herbicidal rate of 70% or more and less than 90%)"}, {"smiles": "Cc1nn(C)c(=O)c(-c2c(-c3ccc(OC(F)F)cc3)sc3ccc(F)cc23)c1OC(=O)c1ccc(Cl)cc1", "note": "[2-286]", "J: blackgrass, herbicidal effect (criteria 0-5)": "4 (Herbicidal rate of 70% or more and less than 90%)"}]}, {"test_system": "Italian ryegrass", "experiment": "Test Example 5: herbicidal effect by foliage application, plastic box (Table 20, symbol K)", "format": "in vivo, Italian ryegrass (Lolium multiflorum)", "conditions": "foliage application, AAH 320 g/ha, evaluated three weeks after application", "method_in_brief": "as §3", "values": [{"smiles": "COCC(=O)Oc1c(C)nn(C)c(=O)c1-c1c(-c2ccc(OC(F)F)cc2)sc2ccc(F)cc12", "note": "[2-283]", "K: Italian ryegrass, herbicidal effect (criteria 0-5)": "5 (Herbicidal rate of 90% or more (almost completely withered))"}, {"smiles": "Cc1nn(C)c(=O)c(-c2c(-c3ccc(OC(F)F)cc3)sc3ccc(F)cc23)c1OC(=O)c1ccc(Cl)cc1", "note": "[2-286]", "K: Italian ryegrass, herbicidal effect (criteria 0-5)": "5 (Herbicidal rate of 90% or more (almost completely withered))"}]}, {"test_system": "velvetleaf", "experiment": "Test Example 5: herbicidal effect by foliage application, plastic box (Table 20, symbol M)", "format": "in vivo, velvetleaf (Abutilon theophrasti)", "conditions": "foliage application, AAH 320 g/ha, evaluated three weeks after application", "method_in_brief": "as §3", "values": [{"smiles": "COCC(=O)Oc1c(C)nn(C)c(=O)c1-c1c(-c2ccc(OC(F)F)cc2)sc2ccc(F)cc12", "note": "[2-283]", "M: velvetleaf, herbicidal effect (criteria 0-5)": "5 (Herbicidal rate of 90% or more (almost completely withered))"}, {"smiles": "Cc1nn(C)c(=O)c(-c2c(-c3ccc(OC(F)F)cc3)sc3ccc(F)cc23)c1OC(=O)c1ccc(Cl)cc1", "note": "[2-286]", "M: velvetleaf, herbicidal effect (criteria 0-5)": "5 (Herbicidal rate of 90% or more (almost completely withered))"}]}, {"test_system": "redroot pigweed", "experiment": "Test Example 5: herbicidal effect by foliage application, plastic box (Table 20, symbol N)", "format": "in vivo, redroot pigweed (Amaranthus retroflexus)", "conditions": "foliage application, AAH 320 g/ha, evaluated three weeks after application", "method_in_brief": "as §3", "values": [{"smiles": "COCC(=O)Oc1c(C)nn(C)c(=O)c1-c1c(-c2ccc(OC(F)F)cc2)sc2ccc(F)cc12", "note": "[2-283]", "N: redroot pigweed, herbicidal effect (criteria 0-5)": "5 (Herbicidal rate of 90% or more (almost completely withered))"}, {"smiles": "Cc1nn(C)c(=O)c(-c2c(-c3ccc(OC(F)F)cc3)sc3ccc(F)cc23)c1OC(=O)c1ccc(Cl)cc1", "note": "[2-286]", "N: redroot pigweed, herbicidal effect (criteria 0-5)": "5 (Herbicidal rate of 90% or more (almost completely withered))"}]}, {"test_system": "lambsquarters", "experiment": "Test Example 5: herbicidal effect by foliage application, plastic box (Table 20, symbol O)", "format": "in vivo, lambsquarters (Chenopodium album)", "conditions": "foliage application, AAH 320 g/ha, evaluated three weeks after application", "method_in_brief": "as §3", "values": [{"smiles": "COCC(=O)Oc1c(C)nn(C)c(=O)c1-c1c(-c2ccc(OC(F)F)cc2)sc2ccc(F)cc12", "note": "[2-283]", "O: lambsquarters, herbicidal effect (criteria 0-5)": "5 (Herbicidal rate of 90% or more (almost completely withered))"}, {"smiles": "Cc1nn(C)c(=O)c(-c2c(-c3ccc(OC(F)F)cc3)sc3ccc(F)cc23)c1OC(=O)c1ccc(Cl)cc1", "note": "[2-286]", "O: lambsquarters, herbicidal effect (criteria 0-5)": "5 (Herbicidal rate of 90% or more (almost completely withered))"}]}]}
